From ChEMBL document CHEMBL5360542, “Current development of β-carboline derived potential antimalarial scaffolds” (Eur J Med Chem, 2023) come the findings set out here.

Holding throughout (assay type): functional, organism-based
Experiment [1] relates to Plasmodium falciparum. In words: Antiplasmodial activity against multi-resistant Plasmodium falciparum W2 infected in erythrocytes assessed as inhibition of parasite growth incubated for 48 hrs by flow cytometry. As to conditions: W2, Erythrocyte. A general note: A flow cytometer gives signals particle by particle.
Experiment [2] has as its system Plasmodium falciparum. The experiment can be described thus: Antimalarial activity against chloroquine-resistant Plasmodium falciparum FcB1 assessed as inhibition of parasite growth.
In experiment [3] the test system is Plasmodium falciparum. The experiment can be described thus: Antimalarial activity against Plasmodium falciparum 3D7 infected in human A positive erythrocytes assessed as reduction in parasite growth incubated for 24 hrs by [3H]hypoxanthine based scintillation counting analysis. As to conditions: 3D7, Erythrocyte.
In experiment [4] the test system is Plasmodium falciparum. In words: Antimalarial activity against chloroquine-resistant Plasmodium falciparum K1 infected in human A positive erythrocytes assessed as reduction in parasite growth incubated for 24 hrs by [3H]hypoxanthine based scintillation counting analysis. As to conditions: K1, Erythrocyte.
The subject of experiment [5] is Plasmodium falciparum. In words: Antiplasmodial activity against chloroquine-sensitive erythrocyte stage Plasmodium falciparum 3D7 assessed as inhibition of parasite growth incubated for 3 days by ELISA. Conditions: 3D7, Erythrocyte, 72 h.
Experiment [6] has as its system Plasmodium falciparum. The experiment can be described thus: Antiplasmodial activity against chloroquine-resistant erythrocyte stage Plasmodium falciparum Dd2 assessed as inhibition of parasite growth incubated for 3 days by ELISA. As to conditions: 72 h.
The test system of experiment [7] is Plasmodium falciparum. In words: Antimalarial activity against Plasmodium falciparum 3D7 infected in erythrocytes assessed as inhibition of parasite growth incubated for 48 hrs by SYBR-Green I fluorescence-based assay. As to conditions: 3D7, Erythrocyte.
In experiment [8] the test system is Plasmodium falciparum. In words: Antimalarial activity against Plasmodium falciparum INDO infected in erythrocytes assessed as inhibition of parasite growth incubated for 48 hrs by SYBR-Green I fluorescence-based assay. Conditions: Erythrocyte.
The test system of experiment [9] is Plasmodium falciparum. In words: Antimalarial activity against chloroquine-sensitive Plasmodium falciparum D10 transfected in human type A-positive RBC cells assessed reduction in parasite growth by measuring LDH activity incubated for 72 hrs by spectrophotometric analysis. Conditions: Plasmodium falciparum, D10, Erythrocyte, 72 h.
In experiment [10] the test system is Plasmodium falciparum. The experiment can be described thus: Antimalarial activity against chloroquine-resistant Plasmodium falciparum W2 transfected in human type A-positive RBC cells assessed reduction in parasite growth by measuring LDH activity incubated for 72 hrs by spectrophotometric analysis. As to conditions: Plasmodium falciparum, W2, Erythrocyte, 72 h.

Experiment [11] concerns Plasmodium falciparum. In words: Antimalarial activity against chloroquine-sensitive Plasmodium falciparum 3D7 assessed as reduction in parasite growth.
The test system of experiment [12] is Plasmodium falciparum. The experiment can be described thus: Antimalarial activity against chloroquine-resistant Plasmodium falciparum K1 assessed as reduction in parasite growth.

Molecules are shown by their SMILES.

For `COc1ccc(C2NCCc3c2[nH]c2ccccc32)cc1` (stereo not drawn), the IC50 – broadly, the concentration that gives 50% inhibition – with Plasmodium falciparum [1] was 700 nM. In the case of `COC(=O)c1cc2c([nH]c3ccccc32)c(C(=O)c2c[nH]c3ccccc23)n1`, the half-maximal inhibitory concentration (IC50) in the experiment with Plasmodium falciparum [2] amounted to 23300 nM. In the case of `Clc1ccc(C2NCCc3c2[nH]c2ccccc32)cc1` (stereo not drawn), the IC50 with Plasmodium falciparum [1] is 4800 nM. On to `CCN(CC)CCCNc1nccc2c1[nH]c1ccc(Cl)cc12`, for which the IC50 in the experiment with Plasmodium falciparum [3] turned out to be 150 nM. For the molecule `CCN(CC)CCCNc1nccc2c1[nH]c1ccc(F)cc12`, the concentration for half-maximal inhibition (IC50) is 300 nM in the experiment with Plasmodium falciparum [4] and 600 nM in the experiment on Plasmodium falciparum [3]. `Brc1ccc(C2NCCc3c2[nH]c2ccccc32)cc1` (stereo not drawn): the IC50 in the experiment on Plasmodium falciparum [1] is 6900 nM. For the molecule `Clc1ccc2[nH]c3c(N4CCC(N5CCCC5)CC4)nccc3c2c1`, the IC50 in the experiment with Plasmodium falciparum [4] was found to be 1030 nM; in the experiment on Plasmodium falciparum [3] it was 930 nM.

For `Clc1ccc2[nH]c3c(N4CCC(N5CCCCC5)CC4)nccc3c2c1`, the figures for the IC50 in the experiment with Plasmodium falciparum [4] and with Plasmodium falciparum [3] were 2660 nM and 10200 nM, respectively. Consider `CN(C)c1ccc(C2NCCc3c2[nH]c2ccccc32)cc1` (stereo not drawn), for which the IC50 in the experiment with Plasmodium falciparum [1] is 3900 nM. On the same count and under the same terms, to `O=[N+]([O-])c1ccc(C2NCCc3c2[nH]c2ccccc32)cc1` (stereo not drawn) belongs 1700 nM.

Turning to `CCN(CC)C1CCN(c2nccc3c2[nH]c2ccc(Cl)cc23)CC1`, the IC50 in the experiment with Plasmodium falciparum [4] turned out to be 1180 nM; in the experiment on Plasmodium falciparum [3] it was 1600 nM. Take `Fc1ccc(C2NCCc3c2[nH]c2ccccc32)cc1` (stereo not drawn): in the experiment on Plasmodium falciparum [1], the IC50 stood at 1100 nM. As for `COc1ccc(/C=C/C(=O)NCCn2c3cc(OC)ccc3c3ccnc(C)c32)cc1`, the IC50 with Plasmodium falciparum [5] came out at 260 nM; in the experiment with Plasmodium falciparum [6] it was 490 nM. On to `COc1ccc2[nH]cc(C(=O)c3nccc4c3[nH]c3ccc(OC)cc34)c2c1`, for which the half-maximal inhibitory concentration (IC50) in the experiment with Plasmodium falciparum [2] amounted to 1000 nM. With `CCOC(=O)c1cc2c([nH]c3ccccc32)c(-c2ccc(/N=C(/Nc3ccccc3)NC3CC3)cc2)n1`, the IC50 in the experiment on Plasmodium falciparum [7] was found to be 1000 nM; in the experiment with Plasmodium falciparum [8] it was 600 nM. As to `CC(C)(C)CCNC(=O)C1Cc2c([nH]c3ccccc23)C(c2ccc(Cl)cc2)N1` (stereo not drawn), the IC50 in the experiment on Plasmodium falciparum [9] stood at 10500 nM; in the experiment with Plasmodium falciparum [10], 7800 nM. Consider `CCOC(=O)c1cc2c([nH]c3ccccc32)c(-c2ccc(N)cc2)n1`, for which the IC50 in the experiment on Plasmodium falciparum [7] was 37700 nM; with Plasmodium falciparum [8], 39000 nM. The like results for `CCOC(=O)c1cc2c([nH]c3ccccc32)c(-c2ccc(NC(=S)Nc3ccccc3)cc2)n1` were, in that order, 6400 nM and 640 nM. For the molecule `C=C(C)CC1OC(C)=Cn2c3ccccc3c3cc(C(=O)OC)nc1c32` (stereo not drawn), the IC50 in the experiment with Plasmodium falciparum [11] was above 5000 nM. As for `C=CCC1OC(C)=Cn2c3ccccc3c3cc(C(=O)OC)nc1c32` (stereo not drawn), the IC50 with Plasmodium falciparum [11] and in the experiment with Plasmodium falciparum [12] was above 5000 nM throughout. As to `CCN(CC)CCCC(C)Nc1nccc2c1[nH]c1ccc(F)cc12` (stereo not drawn), the results for the IC50 in the experiment on Plasmodium falciparum [4] and in the experiment with Plasmodium falciparum [3] were 1200 nM and 370 nM, respectively. For the molecule `COC(=O)c1cc2c3cc(Br)ccc3n3c2c(n1)COC(C)=C3`, the IC50 in the experiment with Plasmodium falciparum [11] is above 5000 nM. For the molecule `C=C(CC1OC(C)=Cn2c3ccccc3c3cc(C(=O)OC)nc1c32)C(=O)OC` (stereo not drawn), the IC50 was 570 nM in the experiment on Plasmodium falciparum [11] and 720 nM in the experiment on Plasmodium falciparum [12]. As to `Cc1nccc2c1[nH]c1cc(OCCNC(=O)/C=C/c3cccc(Br)c3)ccc12`, the values for the IC50 with Plasmodium falciparum [5] and with Plasmodium falciparum [6] were 370 nM and 480 nM, respectively. Consider `COc1ccc2c3ccnc(C)c3n(CCNC(=O)/C=C/c3ccc(F)cc3)c2c1`, for which the IC50 with Plasmodium falciparum [5] was determined as 90 nM; with Plasmodium falciparum [6] it was 330 nM. With `COC(=O)c1cc2c3ccccc3n3c2c(n1)C(C1C=CCCC1)OC(C)=C3` (stereo not drawn), the IC50 in the experiment with Plasmodium falciparum [11] was 1640 nM; with Plasmodium falciparum [12], above 5000 nM. On to `COC(=O)c1cc2c3ccccc3n3c2c(n1)C(CC=C(C)C)OC(C)=C3` (stereo not drawn), for which the IC50 with Plasmodium falciparum [11] and in the experiment with Plasmodium falciparum [12] was above 5000 nM in each case. On to `COc1ccc2c3ccnc(C)c3n(CCNC(=O)/C=C/c3cccc(F)c3)c2c1`, for which the figures for the IC50 in the experiment with Plasmodium falciparum [5] and with Plasmodium falciparum [6] were 70 nM and 780 nM, respectively. `COc1ccc2c3ccnc(C)c3n(CCNC(=O)/C=C/c3cccc(Br)c3)c2c1`: the results for the IC50 with Plasmodium falciparum [5] and in the experiment on Plasmodium falciparum [6] were 70 nM and 410 nM, respectively. On to `COC(=O)c1cc2c3cc(Cl)ccc3n3c2c(n1)C(C/C=C(\C)CCC=C(C)C)OC(C)=C3` (stereo not drawn), for which the results for the IC50 with Plasmodium falciparum [11] and in the experiment on Plasmodium falciparum [12] were 1550 nM and above 5000 nM, respectively.

`COc1ccc(/C=C/C(=O)NCCOc2ccc3c(c2)[nH]c2c(C)nccc23)cc1`: the IC50 stood at 210 nM in the experiment on Plasmodium falciparum [5] and 1090 nM with Plasmodium falciparum [6]. The like results for `Cc1nccc2c1[nH]c1cc(OCCNC(=O)/C=C/c3cccc(F)c3)ccc12` were, in that order, 2750 nM and 5010 nM.
